Reference: US20130115294A1, “STABLE LIQUID OILY READY-TO-USE FORMULATIONS, PREPARATION THEREOF AND USE THEREOF” (CTS CHEMICAL INDUSTRIES LTD., priority 2010, published 2013)
Where a name gives a salt, the structure may show the parent alone. Read-outs that look alike come from different tables or passages of the source.

Assay: Caco-2 cell monolayer uptake and apparent permeability
Format: in vitro ADME
Conditions: human
Description: Caco-2 monolayer were grown in Dulbecco's modified Eagle's medium supplemented with 10% fetal bovine serum, 1% L-glutamine, 1% nonessential amino acids, and 5% antibiotic-antimycotic solution at 37° C. in humidified air, 5% CO2 atmosphere. The culture medium was replaced every 96 h. The uptake studies were conducted with monolayers (passages 73 to 79) in wells of 2 cm^2 which reach confluency following 4 days of incubation in culture. Prior to the experiments, the culture medium was replaced with transport medium and cell monolayers were subsequently equilibrated for 30 min at 37° C. before the uptake study. The transport medium was Hanks buffer composed of 136.89 mM NaCl, 5.36 mM KCl, 0.34 mM Na2HPO4, 0.44 mM KH2PO4, 0.41 mM MgSO4 7H2O, 19.45 mM glucose, 1.26 mM CaCl2, 0.49 mM MgCl2 6H2O, 4.17 mM NaHCO3, 10 mM HEPES, and the pH was adjusted to 7.4.
The powder (10 mg equivalent to 1 mg enalapril maleate) was weighted dispersed and fully dissolved in 1 ml Hanks buffer. 25 μl from this solution were placed in Caco-2 wells with 975 μl of Hanks buffer resulting in a final concentration of 25 μg/ml of enalapril maleate.
A 100 μl of parent CTS oil formulation was withdrawn and diluted with soybean oil USP to give 1 mg/ml of enalapril maleate.
A 25 μl of the diluted oil solution was placed into the transport medium to give a 25 μg/ml of enalapril maleate in each well (dilution 1:40).
All the uptake experiments were performed over 3 hours at 37° C. Following incubation the transport medium was collected in clean tubes stored at −80° C. up to the quantitative determination of the enalapril levels by HPLC (The HPLC method was provided by CTS). Regarding the cell monolayer in the wells, 1 ml of 0.2% SDS was added to each well to elicit lysis of the cell monolayer. The lysate were collected in a clean tube and enalapril was determined by CTS HPLC technique. […]

## CCOC(=O)[C@H](CCc1ccccc1)N[C@@H](C)C(=O)N1CCC[C@H]1C(=O)O [ENL-solution, enalapril maleate]
Caco-2, pH 7.4, 25 μg/ml enalapril maleate, no intestinal juice, read-out: apparent permeability (Papp)
  Papp at 3 h, 25 μg/ml: 25.1 ± 0.5 ×10⁻⁶ cm/s
Caco-2, pH 7.4, printed values are Papp multiplied by 10^6, 25 μg/ml enalapril maleate, 37° C., Hanks buffer pH 7.4, + 0.1% intestinal juice (IJ), read-out: Papp × 10^6 (cm/s) ± s.d
  Papp at 3 h, 25 μg/ml: 25.2 ± 4.81 ×10⁻⁶ cm/s
Caco-2, pH 7.4, printed values are Papp multiplied by 10^6, 25 μg/ml enalapril maleate, 37° C., Hanks buffer pH 7.4, no intestinal juice, read-out: Papp × 10^6 (cm/s) ± s.d
  Papp at 3 h, 25 μg/ml: 25.1 ± 2.93 ×10⁻⁶ cm/s
